{"source": "paper PMC11280411", "about": "“Phytochemical Investigation of Carex praecox Schreb. and ACE-Inhibitory Activity of Oligomer Stilbenes of the Plant” (Molecules, 2024)", "origin": "cited, not measured here", "tested_on": "SARS-CoV-2 USA-WA1/2020, B.1.1.7, and B.1.351 variants", "set-up": "method as in PMID 34543092", "conditions": "cited from earlier work"}
{"compound": "Oc1ccc(C2Oc3cc(O)cc4c3C2c2cc(O)cc(O)c2C(c2ccc(O)cc2)C4C2c3cc(O)cc4c3C(c3cc(O)cc(O)c3C2c2ccc(O)cc2)C(c2ccc(O)cc2)O4)cc1", "note": "(single isomer, unassigned; (-)) [Compound 16, (–)-hopeaphenol]", "values": [{"measurement": "inhibition of cellular entry of SARS-CoV-2", "value": "inhibited cellular entry of SARS-CoV-2 USA-WA1/2020, B.1.1.7, and B.1.351 variants"}]}
